Read-outs that look alike come from different tables or passages of the source.

In test [1] the target is T1, LecA (PA-IL) (Pseudomonas aeruginosa, UniProt Q05097).
T1 construct: soluble calcium-dependent homotetramer, one site per monomer
Put plainly: isothermal titration calorimetry. In kind it is binding. From the text: isothermal titration calorimetry on LecA (PA-IL)
For orientation: In ITC the heat of successive injections is recorded.

Test [2] concerns the target T2, LecB (PA-IIL) (Pseudomonas aeruginosa, UniProt Q9HYN5).
T2 construct: soluble calcium-dependent homotetramer, one site per monomer
The test is described as follows: isothermal titration calorimetry. In kind it is binding.

Test [3] has as its target T2, LecB (PA-IIL). Put plainly: yeast agglutination inhibition, microscopy. It counts as biochemical. The conditions noted are these: LecB 625 μg/ml, yeast cells; complete inhibition. From the text:
yeast agglutination inhibition, microscopy on LecB (PA-IIL)

In test [4] the target is T1, LecA (PA-IL). Put plainly: hemagglutination inhibition, microscopy. It counts as biochemical. The conditions noted are these: LecA 125 μg/ml, group O red blood cells; complete inhibition. From the text:
hemagglutination inhibition, microscopy on LecA (PA-IL)

T2 sequence (Q9HYN5 entry or part of it): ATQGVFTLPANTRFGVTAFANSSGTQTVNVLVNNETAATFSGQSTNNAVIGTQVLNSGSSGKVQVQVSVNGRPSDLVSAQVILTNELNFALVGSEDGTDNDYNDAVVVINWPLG
T1 sequence (Q05097 2-122): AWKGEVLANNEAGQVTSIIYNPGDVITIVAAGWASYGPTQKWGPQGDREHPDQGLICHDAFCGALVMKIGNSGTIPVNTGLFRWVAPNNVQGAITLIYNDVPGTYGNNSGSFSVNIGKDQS

For `OC[C@H]1OC(O)[C@H](O)[C@@H](O)[C@H]1O` (stereo partly drawn) [D-Galactose], in test [1] (read-out: LecA / KD, 300 μM lectin, 2 mM ligand, non-sigmoid curve, n apparent), the Kd is 175 µM.

For `C[C@@H]1O[C@@H](S[C@@H]2O[C@H](CO)[C@H](O)[C@H](O)[C@H]2O)[C@@H](O)[C@H](O)[C@@H]1O` [compound 14, Thio‐L‐Fuc‐α(1,1)β‐D‐Gal], the values for the Kd in test [1] and in test [2] were 115 µM and 350 nM, respectively.

With `C[C@@H]1O[C@@H](S[C@@H]2O[C@@H](C)[C@@H](O)[C@@H](O)[C@@H]2O)[C@@H](O)[C@H](O)[C@@H]1O` [compound 25, Thio‐L‐Fuc‐α(1,1)α‐L‐Fuc], the “LecB / MIC” value in test [3] turned out to be 6.10 µM.

With `C[C@@H]1O[C@@H](S[C@H]2O[C@H](CO)[C@@H](O)[C@H](O)[C@H]2O)[C@@H](O)[C@H](O)[C@@H]1O` [compound 26, Thio‐L‐Fuc‐α(1,1)α‐D‐Glc], the “LecB / MIC” value in test [3] is 6.10 µM.

As to `C[C@@H]1O[C@@H](S[C@H]2O[C@H](CO)[C@H](O)[C@H](O)[C@H]2O)[C@@H](O)[C@H](O)[C@@H]1O` [compound 27, Thio‐L‐Fuc‐α(1,1)α‐D‐Gal], the Kd in test [1] is 55.6 µM; in test [2], 190 nM.

In the case of `C[C@H]1O[C@H](S[C@H]2O[C@H](CO)[C@H](O)[C@H](O)[C@H]2O)[C@H](O)[C@@H](O)[C@H]1O` [compound 28, Thio‐D‐Fuc‐α(1,1)α‐D‐Gal], in test [4], the “LecA / MIC” value came to 390 µM.

Take `OC[C@H]1O[C@H](S[C@H]2O[C@H](CO)[C@H](O)[C@H](O)[C@H]2O)[C@H](O)[C@@H](O)[C@H]1O` [compound 29, Thio‐D‐Gal‐α(1,1)α‐D‐Gal]: the “LecA / MIC” value in test [4] worked out at 97.5 µM.

As for `OC[C@H]1O[C@H](S[C@H]2O[C@H](CO)[C@@H](O)[C@H](O)[C@H]2O)[C@H](O)[C@@H](O)[C@H]1O` [compound 30, Thio‐D‐Gal‐α(1,1)α‐D‐Glc], in test [4], the “LecA / MIC” value came out at 390 µM.

The values above are taken from publication PMC11753388, “Bispecific Thio‐Linked Disaccharides as Inhibitors of Pseudomonas Aeruginosa Lectins LecA (PA‐IL) and LecB (PA‐IIL): Dual‐Targeting Strategy” (Chemistry (Weinheim an Der Bergstrasse, Germany), 2024).
